What follows are compounds tested against Human immunodeficiency virus type 1 protease (Human immunodeficiency virus 1, UniProt Q72874) (assay: Compound was tested for the inhibitory activity against HIV-protease).

| SMILES | Ki |
| --- | --- |
| O=C1N(Cc2ccccc2)C[C@@H](O)[C@@H](Cc2ccccc2)N1Cc1ccccc1 | 0.0025 µM |
| O=C1[C@@H](Cc2ccccc2)C[C@@H](O)[C@@H](Cc2ccccc2)N1Cc1ccccc1 | 9.4 µM |
| O=C1N(Cc2ccccc2)C[C@H](O)[C@@H](Cc2ccccc2)N1Cc1ccccc1 | 11 µM |
| O=C1N[C@H](CCc2ccccc2)[C@@H](O)[C@@H](Cc2ccccc2)N1Cc1ccccc1 | 0.066 µM |

— ChEMBL document CHEMBL1129849, “Synthesis and evaluation of delta lactams as nonpeptide HIV-protease inhibitors” (Bioorg Med Chem Lett, 1997)
